Assay type in all cases: functional
One experiment concerns A549. Put plainly: Inhibitory activity against A549 cell line; inactive. The settings on record: Homo sapiens, read-out: ID50 (the source's name).
A further experiment has as its system BT-549. Put plainly: Inhibitory activity against BT549 cell line; inactive. The settings on record: Homo sapiens, read-out: ID50 (the source's name).
The next experiment relates to KB. Put plainly: Inhibitory activity against protein linked DNA breaks in KB cells at 25 ug/mL after 1 hour. The settings on record: Homo sapiens.
The subject of a further experiment is PLC. Description: Inhibitory activity against PLC cell line; inactive. The settings on record: Homo sapiens, read-out: ID50 (the source's name).
The test system of the next experiment is SW480. Description: Inhibitory activity against SW480 cell line; inactive. The settings on record: Homo sapiens, read-out: ID50 (the source's name).

Each structure is given as a SMILES string. Bounds are passed on as bounds.

`CC[C@@]1(O)C(=O)OCc2c1cc1n(c2=O)[C@H](CO)c2cc3ccccc3nc2-1`: the IC50 with A549, in the experiment on BT-549, in the experiment on PLC and in the experiment with SW480 was above 5 µM throughout. In addition, in the experiment on KB, the inhibition at 25 µg/mL came out at 20.4%.
As for `CC[C@@]1(O)C(=O)OCc2c1cc1n(c2=O)[C@H](C(=O)c2cc(OC)c(OC)c(OC)c2)c2cc3ccccc3nc2-1`, the IC50 in the experiment with A549, in the experiment on BT-549, in the experiment with PLC and with SW480 was above 5 µM each time. Further, the inhibition at 25 µg/mL in the experiment on KB was 0%.
For `CC[C@@]1(O)C(=O)OCc2c1cc1n(c2=O)Cc2c-1nc1ccccc1c2C=O`, the inhibition at 25 µg/mL with KB came to 107%.
In the case of `CC[C@@]1(O)C(=O)OCc2c1cc1n(c2=O)[C@@H](CO)c2cc3ccccc3nc2-1`, the IC50 with A549, in the experiment on BT-549, with PLC and with SW480 was above 5 µM in each case. The inhibition at 25 µg/mL in the experiment with KB was found to be 8.7%.
With `CC[C@@]1(O)C(=O)OCc2c1cc1n(c2=O)Cc2cc3ccccc3nc2-1` [CAMPTOTHECIN], the inhibition at 25 µg/mL with KB is 100%.
Still for that read-out and setting: in the case of `CC[C@@]1(O)C(=O)OCc2c1cc1n(c2=O)Cc2c-1nc1ccccc1c2CO` it was 97.6%.
For `CC[C@@]1(O)C(=O)OCc2c1cc1n(c2=O)C(CO)(CO)c2cc3ccccc3nc2-1`, the IC50 in the experiment with A549, in the experiment with BT-549, in the experiment on PLC and with SW480 was above 5 µM each time. Further, in the experiment on KB, the inhibition at 25 µg/mL came to 0%.

(Values after ChEMBL document CHEMBL1128143, “The synthesis of 5-substituted camptothecins as potential inhibitors of DNA topoisomerase I” (1995).)
